Data from patent US20100069384A1, “5-ALKYLOXY-INDOLIN-2-ONE DERIVATIVES, PREPARATION THEREOF AND APPLICATION THEREOF IN THERAPY” (SANOFI-AVENTIS, priority 2006, published 2010).
Where a name gives a salt, the structure may show the parent alone.

Columns and labels:
V1a receptors = V1a receptors (Homo sapiens, UniProt P37288); test: affinity for V1a receptors (method of Thibonnier et al.); type: binding; settings: for IC50 V1a/IC50 V2: selectivity ratio versus V2
Experimental: (§1) The affinity of the compounds of the invention for the Via and V1b vasopressin receptors and the affinity of the compounds of the invention for the oxytocin (OXT) receptors were also tested.
(§2) The affinity of the compounds according to the invention for human Via receptors was determined according to the method described by M. Thibonnier et al. in J. Biol. Chem. 1994, 269, 3304-3310. The affinity of the compounds according to the invention for the V1b receptors was determined according to the method described by T. Sugimoto et al. in J. Biol. Chem. 1994, 269, 27088-27092.

human oxytocin receptors = molecular target: T1, human oxytocin receptors (Homo sapiens, UniProt P30559); test: in vitro binding test, displacement of a radioiodated oxytocin analogue from oxytocin receptors; settings: for IC50: membrane preparation of human oxytocin receptors; for IC50 OXT/IC50 V2: selectivity ratio versus V2
T1 sequence (P30559 1-389): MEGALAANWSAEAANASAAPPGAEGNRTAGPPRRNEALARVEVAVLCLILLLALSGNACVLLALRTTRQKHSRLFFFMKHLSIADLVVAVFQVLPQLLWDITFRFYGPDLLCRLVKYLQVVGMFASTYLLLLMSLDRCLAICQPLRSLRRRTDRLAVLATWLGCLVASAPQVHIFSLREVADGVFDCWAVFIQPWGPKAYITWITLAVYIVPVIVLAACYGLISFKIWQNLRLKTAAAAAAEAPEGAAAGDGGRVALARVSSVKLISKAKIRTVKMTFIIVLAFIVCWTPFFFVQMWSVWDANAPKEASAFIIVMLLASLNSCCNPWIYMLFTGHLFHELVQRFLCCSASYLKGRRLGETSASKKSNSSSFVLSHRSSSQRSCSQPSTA
Experimental: as §1
The affinity of the compounds according to the invention for the OXT receptors was determined in an in vitro binding test using the method described by J. Elands et al. in Eur. J. Pharmacol. 1987, 147, 197-207. This method comprises in vitro investigation of the displacement of a radioiodated analogue of oxytocin from the oxytocin receptors in a membrane preparation of human oxytocin receptors.

V1b receptors = molecular target: T2, V1b receptors (Homo sapiens, UniProt P47901); test: affinity for V1b receptors (method of Sugimoto et al.); type: binding; settings: for IC50 V1b/IC50 V2: selectivity ratio versus V2
T2 sequence (P47901 1-424): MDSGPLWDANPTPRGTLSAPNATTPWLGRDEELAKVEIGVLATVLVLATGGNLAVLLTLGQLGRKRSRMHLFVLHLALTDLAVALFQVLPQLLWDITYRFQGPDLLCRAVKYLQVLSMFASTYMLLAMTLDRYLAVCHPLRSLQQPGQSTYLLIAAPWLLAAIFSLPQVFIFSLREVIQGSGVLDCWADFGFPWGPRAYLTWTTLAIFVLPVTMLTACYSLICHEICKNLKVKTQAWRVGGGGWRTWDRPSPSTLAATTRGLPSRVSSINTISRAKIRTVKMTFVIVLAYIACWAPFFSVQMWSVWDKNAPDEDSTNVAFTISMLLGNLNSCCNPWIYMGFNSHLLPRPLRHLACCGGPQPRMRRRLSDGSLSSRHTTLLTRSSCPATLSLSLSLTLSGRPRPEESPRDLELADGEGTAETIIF
Experimental: as §1, §2

[1] = molecular target: T3, human recombinant V2 vasopressin receptors (Homo sapiens, UniProt P30518); test: in vitro binding test, displacement of [H3]-AVP from V2 vasopressin receptors; settings: CHO membranes, 3.5 nM [H3]-AVP, 45 minutes at 25° C.
T3 construct: expressed in transfected cells; host or cells: CHO
Experimental: The affinity of the compounds of the invention for the V2 vasopressin receptors was measured in in vitro binding tests, as described in J. Pharmacol. Exp. Ther., (2002), 300: pp. 1122-1130.
Plasma membranes (about 20 μg/ml) obtained from CHO tissue or cell line expressing human recombinant V2 vasopressin receptors, are incubated for 45 minutes at 25° C. in 200 μL of TRIS-HCl buffer (50 mM; pH 8.2) containing 2 mM of MgCl2, 1 mM of EDTA, 0.1% of BSA, 1/500 protease inhibitor cocktail (Sigma #P2714) and 3.5 nM of [H3]-AVP. The reaction is stopped by filtration and washing on GF/B filters. Nonspecific binding is determined in the presence of 1 μM of AVP. The compounds of the invention, dissolved beforehand to a concentration of 10^−2 M in DMSO, are tested in a dilution series.
For each concentration the results are expressed as percentage inhibition of specific binding. An IC50 (concentration of product inhibiting 50% of specific binding) is determined for each of the products using the in-house software Biost@t-SPEED v1.3 which employs the 4-parameter logistic model of Ratkovsky and Reedy (1986). Adjustment is obtained by nonlinear regression using Marquardt's algorithm of the SAS v8.2 software running under UNIX.

T3 sequence (P30518 whole entry): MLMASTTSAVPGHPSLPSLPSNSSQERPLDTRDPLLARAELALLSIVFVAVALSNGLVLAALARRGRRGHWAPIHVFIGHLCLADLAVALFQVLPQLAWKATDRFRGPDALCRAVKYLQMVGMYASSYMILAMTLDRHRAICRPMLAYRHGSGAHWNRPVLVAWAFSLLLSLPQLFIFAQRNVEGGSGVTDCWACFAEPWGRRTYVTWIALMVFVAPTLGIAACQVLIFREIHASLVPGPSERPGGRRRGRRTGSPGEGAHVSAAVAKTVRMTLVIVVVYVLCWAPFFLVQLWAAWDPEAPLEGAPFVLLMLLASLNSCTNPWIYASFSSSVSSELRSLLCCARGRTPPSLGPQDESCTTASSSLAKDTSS
Sequence of V1a receptors (P37288 whole entry): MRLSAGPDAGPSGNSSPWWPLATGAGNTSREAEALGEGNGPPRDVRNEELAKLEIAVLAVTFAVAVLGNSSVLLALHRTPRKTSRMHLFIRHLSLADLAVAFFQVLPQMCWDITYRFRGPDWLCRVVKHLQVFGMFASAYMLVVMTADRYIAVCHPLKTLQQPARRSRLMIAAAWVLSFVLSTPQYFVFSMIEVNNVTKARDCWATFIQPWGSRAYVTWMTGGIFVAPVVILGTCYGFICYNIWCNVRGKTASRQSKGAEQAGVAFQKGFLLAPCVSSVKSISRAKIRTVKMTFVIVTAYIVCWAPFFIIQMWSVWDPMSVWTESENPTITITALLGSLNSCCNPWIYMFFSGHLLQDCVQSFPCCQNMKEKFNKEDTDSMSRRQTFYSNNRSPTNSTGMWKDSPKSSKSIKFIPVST

Row | Compound | melting point [°C] | IC50 (V1a receptors) [nM] | IC50 V1a/IC50 V2 (V1a receptors) | IC50 (human oxytocin receptors) [nM] | IC50 OXT/IC50 V2 (human oxytocin receptors) | IC50 (V1b receptors) [nM] | IC50 V1b/IC50 V2 (V1b receptors) | IC50 [1] [nM]
1 | CCOc1ccc2c(c1)C(C)(c1cc(C(=O)NCCN)ccc1Cl)C(=O)N2S(=O)(=O)c1ccc(C(=O)NC(C)(C)C)cc1OC (stereo not shown) (as salt: hydrochloride) [Example 47, N-tert-Butyl-4-{3-[2-chloro-5-(2-aminoethylamino-carbonyl)-phenyl]-5-ethoxy-3-methyl-2-oxo-2,3-dihydro-indole-1-sulphonyl}-3-methoxy-benzamide] | 204 |  |  |  |  |  |  | 
2 | CCOc1ccc2c(c1)C(C)(c1ccccc1Cl)C(=O)N2S(=O)(=O)c1ccc(C(=O)NC(C)(C)C)cc1 (single isomer, unassigned) [Example 12, N-tert-butyl-4-[3-(2-chlorophenyl)-5-ethoxy-3-methyl-2-oxo-2,3-dihydroindole-1-sulphonyl]benzamide] | 153 | 450 | >100 | 140 | 74 | > 1000 | >100 | 1.9
3 | CCOc1ccc2c(c1)C(C)(c1cc(C(=O)N[C@@H]3CCNC3)ccc1Cl)C(=O)N2S(=O)(=O)c1ccc(C(=O)NC(C)(C)C)cc1OC (single isomer, unassigned) [Example 43] | 216 | 730 | >100 | 700 | >100 | > 1000 | >100 | 1.3
4 | CCOc1ccc2c(c1)C(C)(c1ccccc1)C(=O)N2S(=O)(=O)c1ccc(C(=O)NC(C)(C)C)cc1OC (single isomer, unassigned) [Example 99, N-tert-butyl-3-methoxy-4-[3-methyl-3-phenyl-5-ethoxy-2-oxo-2,3-dihydroindole-1-sulphonyl]benzamide] | 148 | 260 | >100 | 700 | >100 | > 1000 | >100 | 1
5 | CCOc1ccc2c(c1)C(C)(c1ccccc1Cl)C(=O)N2S(=O)(=O)c1ccc(C(=O)NC(C)(C)CC)cc1 (stereo not shown) [Example 4, 4-[3-(2-Chloro-phenyl)-5-ethoxy-3-methyl-2-oxo-2,3-dihydro-indole-1-sulphonyl]-N-(1,1-dimethyl-propyl)-benzamide] | 138 |  |  |  |  |  |  | 
6 | CCOc1ccc2c(c1)C(C)(c1cc(C(=O)O)ccc1Cl)C(=O)N2S(=O)(=O)c1ccc(C(=O)NC(C)(C)C)cc1OC (stereo not shown) [Example 19, 3-[1-(4-tert-Butylcarbamoyl-2-methoxy-benzenesulphonyl)-5-ethoxy-3-methyl-2-oxo-2,3-dihydro-1H-indol-3-yl]-4-chloro-benzoic acid] | 200 |  |  |  |  |  |  | 
7 | CCNC(=O)c1ccc(Cl)c(C2(C)C(=O)N(S(=O)(=O)c3ccc(C(=O)NC(C)(C)C)cc3OC)c3ccc(OCC)cc32)c1 (stereo not shown) [Example 21, 4-chloro-3-[1-(4-tert-butylcarbamoyl-2-methoxybenzenesulphonyl)-5-ethoxy-3-methyl-2-oxo-2,3-dihydro-1H-indol-3-yl]-N-ethylbenzamide] | 176 | 340 | >100 | > 1000 | >100 | > 1000 | >100 | 3
8 | CCOc1ccc2c(c1)C(C)(c1cc(C(=O)NCCN3CCOCC3)ccc1Cl)C(=O)N2S(=O)(=O)c1ccc(C(=O)NC(C)(C)C)cc1OC (stereo not shown) [Example 36, 4-chloro-3-[1-(4-tert-butylcarbamoyl-2-methoxybenzenesulphonyl)-5-ethoxy-3-methyl-2-oxo-2,3-dihydro-1H-indol-3-yl]-N-(2-morpholin-4-ylethyl)benzamide] | 124 | > 1000 | >100 | 350 | 67 | > 1000 | >100 | 5.2
9 | CCOc1ccc2c(c1)C(C)(c1cc(C(=O)N3CC4CCN(C)C4C3)ccc1Cl)C(=O)N2S(=O)(=O)c1ccc(C(=O)NC(C)(C)C)cc1OC (stereo not shown) [Example 46, N-tert-Butyl-4-{3-[2-chloro-5-(1-methyl-hexahydro-pyrrolo[3,4-b]pyrrole-5-carbonyl)-phenyl]-5-ethoxy-3-methyl-2-oxo-2,3-dihydro-indole-1-sulphonyl}-3-methoxy-benzamide] | 130 |  |  |  |  |  |  | 
10 | CCOc1ccc2c(c1)C(C)(c1cc(C(=O)O)ccc1Cl)C(=O)N2S(=O)(=O)c1ccc(C(=O)NC(C)(C)C)cc1 (stereo not shown) [Example 48, 3-[1-(4-tert-Butylcarbamoyl-benzenesulphonyl)-5-ethoxy-3-methyl-2-oxo-2,3-dihydro-1H-indol-3-yl]-4-chloro-benzoic acid] | 188 |  |  |  |  |  |  | 
11 | CCOc1ccc2c(c1)C(C)(c1cc(N)ccc1Cl)C(=O)N2S(=O)(=O)c1ccc(C(=O)NC(C)(C)C)cc1OC (stereo not shown) [Example 55, 4-[3-(5-Amino-2-chloro-phenyl)-5-ethoxy-3-methyl-2-oxo-2,3-dihydro-indole-1-sulphonyl]-N-tert-butyl-3-methoxy-benzamide] | 166 |  |  |  |  |  |  | 
12 | CCOc1ccc2c(c1)C(C)(c1ccccc1)C(=O)N2S(=O)(=O)c1ccc(C(=O)NC(C)(C)C)cc1 (stereo not shown) [Example 98, N-tert-butyl-4-[3-methyl-3-phenyl-5-ethoxy-2-oxo-2,3-dihydroindole-1-sulphonyl]-benzamide] | 89 |  |  |  |  |  |  | 
13 | CCOc1ccc2c(c1)C(C)(c1ccccc1F)C(=O)N2S(=O)(=O)c1ccc(C(=O)NC(C)(C)C)cc1 (stereo not shown) [Example 101, N-tert-butyl-4-[3-methyl-3-(2-fluorophenyl)-5-ethoxy-2-oxo-2,3-dihydroindole-1-sulphonyl]benzamide] | 116 |  |  |  |  |  |  | 
14 | CCOc1ccc2c(c1)C(C)(c1cccc(OC)c1)C(=O)N2S(=O)(=O)c1ccc(C(=O)NC(C)(C)C)cc1 (stereo not shown) [Example 103, N-tert-butyl-4-[3-(3-methoxyphenyl)-5-ethoxy-3-methyl-2-oxo-2,3-dihydroindole-1-sulphonyl]benzamide] | 101 |  |  |  |  |  |  | 
15 | CCOc1ccc2c(c1)C(C)(c1c(F)cccc1Cl)C(=O)N2S(=O)(=O)c1ccc(C(=O)NC(C)(C)C)cc1 (stereo not shown) [Example 125, N-tert-butyl-4-[3-methyl-3-(2-chloro-6-fluorophenyl)-5-ethoxy-2-oxo-2,3-dihydro-indole-1-sulphonyl]benzamide] | 128 |  |  |  |  |  |  | 
16 | CC(C)(C)NC(=O)c1ccc(S(=O)(=O)N2C(=O)C(C)(c3ccccc3Cl)c3cc(OCC(F)(F)F)ccc32)cc1 (stereo not shown) [Example 143, N-tert-Butyl-4-[3-(2-chlorophenyl)-3-methyl-2-oxo-5-(2,2,2-trifluoroethoxy)-2,3-di-hydroindole-1-sulphonyl]benzamide] | 134 |  |  |  |  |  |  | 
17 | CCOc1ccc2c(c1)C(C)(c1cccc(OCCCN(C)C)c1)C(=O)N2S(=O)(=O)c1ccc(C(=O)NC(C)(C)C)cc1 (stereo not shown) [Example 145, N-tert-Butyl-4-{3-[3-(3-dimethylaminopropoxy)phenyl]-5-ethoxy-3-methyl-2-oxo-2,3-dihydroindole-1-sulphonyl}benzamide] | 86 |  |  |  |  |  |  | 
